Measured values taken from ChEMBL document CHEMBL1201862, “PubChem BioAssay data set” (2004).
Active and inactive are the calls of the source.

Tests used:
[1] = cytotoxicity in HPDE-C7 cells, cell-based, fluorescence, HTS (AID 430); assay type: functional; settings: Homo sapiens
[2] = cytotoxicity in KRAS-transformed pancreatic duct cells, primary screen, cell-based, fluorescence, HTS (AID 431); assay type: functional; settings: Homo sapiens;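 note: cell line used: HPDE-C7K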
[3] = molecular target: T1, NADPH oxidase 1 (Homo sapiens, UniProt Q9Y5S8); assay type: functional, cell-based;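 note: Cell-based assay with luminescence read-out, IC50 derived from inhibitor dose-response curves; intracellular ROS from endogenous NOX1 in intact HT29 colon cancer cells; potency of inhibitors that lower the ROS luminescence signal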
T1 sequence (Q9Y5S8 whole entry): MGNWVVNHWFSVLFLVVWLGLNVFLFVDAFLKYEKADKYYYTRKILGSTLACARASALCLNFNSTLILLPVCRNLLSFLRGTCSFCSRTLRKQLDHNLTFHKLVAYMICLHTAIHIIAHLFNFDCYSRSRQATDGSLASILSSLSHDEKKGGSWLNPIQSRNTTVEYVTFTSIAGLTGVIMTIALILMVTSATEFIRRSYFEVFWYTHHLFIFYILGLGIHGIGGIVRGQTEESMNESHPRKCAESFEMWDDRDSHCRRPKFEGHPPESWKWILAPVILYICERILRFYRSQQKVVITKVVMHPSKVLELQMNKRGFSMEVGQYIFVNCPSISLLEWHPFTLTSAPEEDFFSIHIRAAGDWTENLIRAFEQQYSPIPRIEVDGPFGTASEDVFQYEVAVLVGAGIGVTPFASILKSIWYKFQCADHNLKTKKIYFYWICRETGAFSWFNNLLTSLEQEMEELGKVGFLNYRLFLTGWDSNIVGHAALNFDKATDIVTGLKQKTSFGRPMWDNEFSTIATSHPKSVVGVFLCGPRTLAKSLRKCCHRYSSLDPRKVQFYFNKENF

[4] = molecular target: T2, Bcl-2-related protein A1 (Mus musculus, UniProt Q07440); assay type: functional;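 note: confirmatory dose–response counterscreen on Bfl-1, used to check hits from a UBC13 polyubiquitin inhibitor campaign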
T2 sequence (Q07440 whole entry): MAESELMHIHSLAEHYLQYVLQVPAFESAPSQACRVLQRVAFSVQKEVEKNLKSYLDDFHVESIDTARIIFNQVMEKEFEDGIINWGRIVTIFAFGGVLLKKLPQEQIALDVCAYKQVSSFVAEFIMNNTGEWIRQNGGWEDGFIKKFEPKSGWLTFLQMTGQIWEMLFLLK

[5] = molecular target: T3, Ubiquitin-conjugating enzyme E2 N (Homo sapiens, UniProt P61088); assay type: functional
T3 sequence (P61088 whole entry): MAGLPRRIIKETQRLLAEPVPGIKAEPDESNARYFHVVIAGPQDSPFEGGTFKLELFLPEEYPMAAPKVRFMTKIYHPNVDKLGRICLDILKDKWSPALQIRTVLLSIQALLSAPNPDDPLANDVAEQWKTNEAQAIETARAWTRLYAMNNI

[6] = molecular target: T3, Ubiquitin-conjugating enzyme E2 N; assay type: functional; remark: listed apart in the source
[7] = half-maximal inhibitory concentration for glucagon-like peptide-1 release, STC-1 cell line, dose-response (AID 1117345); assay type: functional, cell-based
[8] = Glucagon-like peptide 1 release potency, NCI-H716 cell line, dose-response, half-maximal inhibitory concentration (AID 1117344); assay type: functional, cell-based
[9] = molecular target: T4, Oxysterols receptor LXR-beta (Homo sapiens, UniProt P55055); assay type: functional, cell-based;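 note: Cell-based luminescence dose-response assay of agonist activity at LXR, run as a confirmatory counterscreen to a daf-12 agonist screen; HEK293 cells with Gal4-LXR fusion and GAL4-driven luciferase reporter; agonist potency from rising luciferase signal of a Gal4-LXR reporter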
T4 sequence (P55055 whole entry): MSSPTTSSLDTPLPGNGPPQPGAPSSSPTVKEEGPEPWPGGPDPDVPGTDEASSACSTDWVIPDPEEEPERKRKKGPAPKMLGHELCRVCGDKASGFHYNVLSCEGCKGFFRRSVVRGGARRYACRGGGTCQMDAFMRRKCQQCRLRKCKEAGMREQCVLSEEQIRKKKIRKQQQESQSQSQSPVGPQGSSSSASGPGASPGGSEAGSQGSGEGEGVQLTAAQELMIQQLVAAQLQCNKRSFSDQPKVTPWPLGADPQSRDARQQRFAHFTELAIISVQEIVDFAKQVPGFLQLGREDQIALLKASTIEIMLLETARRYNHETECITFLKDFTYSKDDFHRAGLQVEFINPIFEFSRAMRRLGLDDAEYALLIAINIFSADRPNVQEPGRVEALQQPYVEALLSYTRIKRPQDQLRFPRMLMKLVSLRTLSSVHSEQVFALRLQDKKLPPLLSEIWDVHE

[10] = cells
[11] = molecular target: Protein Tat (Human immunodeficiency virus type 1 group M subtype B (isolate HXB2)(HIV-1), UniProt P04608); assay type: functional;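 note: tat binding to TAR RNA read out by fluorescence polarization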
Chain of Protein Tat (P04608 whole entry): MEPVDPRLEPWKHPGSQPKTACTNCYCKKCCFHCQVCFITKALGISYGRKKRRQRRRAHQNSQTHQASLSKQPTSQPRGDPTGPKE

[12] = molecular target: Glutathione-S-transferase (Schistosoma japonicum, UniProt Q26513); assay: biotin-GST/anti-GST TR-FRET signal inhibitors, dose response, artefact control for Vif-APOBEC3G degradation inhibitor project, biochemical (AID 1117362); assay type: functional
Chain of Glutathione-S-transferase (Q26513 whole entry): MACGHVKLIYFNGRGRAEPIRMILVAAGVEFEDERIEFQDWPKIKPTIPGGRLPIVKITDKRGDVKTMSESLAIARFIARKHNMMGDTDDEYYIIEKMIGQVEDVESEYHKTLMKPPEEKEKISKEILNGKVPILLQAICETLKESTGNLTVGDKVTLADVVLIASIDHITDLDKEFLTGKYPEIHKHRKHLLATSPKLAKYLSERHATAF

[13] = Vero cell cytotoxicity, dose response, cytotoxicity control for Vif-APOBEC3G degradation inhibitor project, Vero cells (AID 1117358); assay type: functional; settings: Human immunodeficiency virus 1, Vero
[14] = test system: Streptococcus sp. 'group A'; assay: growth inhibition of control SK(-) GAS strain, dose response, counter-screen for streptokinase expression inhibitor project, luminescence, kanamycin, BacTiterGlo, confirmation (AID 1900); assay type: functional, organism-based
[15] = molecular target: T5, Streptokinase A (Streptococcus pyogenes serotype M1, UniProt P10520); assay: S. pyogenes streptokinase expression inhibitors, potency, dose response, plasminogen activation absorbance, OD405 (AID 1914); assay type: functional, Streptococcus pyogenes M1 GAS;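 note: secreted streptokinase activity via plasminogen activation per viability signal from cell pellet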
T5 sequence (P10520 whole entry): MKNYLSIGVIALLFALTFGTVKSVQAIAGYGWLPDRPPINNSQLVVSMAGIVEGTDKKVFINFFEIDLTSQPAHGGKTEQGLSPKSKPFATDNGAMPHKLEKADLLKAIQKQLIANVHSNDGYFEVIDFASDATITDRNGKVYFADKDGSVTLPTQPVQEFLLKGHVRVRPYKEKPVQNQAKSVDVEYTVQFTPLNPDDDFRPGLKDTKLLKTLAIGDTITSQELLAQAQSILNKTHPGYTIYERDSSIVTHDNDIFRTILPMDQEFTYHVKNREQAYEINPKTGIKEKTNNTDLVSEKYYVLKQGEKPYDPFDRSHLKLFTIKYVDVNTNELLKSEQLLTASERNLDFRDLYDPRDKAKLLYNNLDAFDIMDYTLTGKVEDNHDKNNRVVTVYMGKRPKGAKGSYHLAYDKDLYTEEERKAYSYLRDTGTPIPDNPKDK

[16] = test system: Streptococcus; assay: Group A Streptococcus viability loss, dose response, counter-screen for streptokinase expression inhibitor project, luminescence, BacTiterGlo (AID 1915); assay type: functional, organism-based;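 note: potency for reduction of bacterial viability or growth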
[17] = THP-1 cell cytotoxicity, dose response, cytotoxicity control for non-replicating M. tuberculosis project (AID 489025); assay type: functional
[18] = Vero E6 cell cytotoxicity, dose response, cytotoxicity control for non-replicating M. tuberculosis project, secondary assay (AID 492998); assay type: functional, VeroE6; settings: Vero C1008
[19] = cells; assay type: functional
[20] = test system: INS1; assay: beta cell apoptosis inhibitors, cytokine rescue, dose response, luminescence, retest (AID 449756); assay type: functional, cell-based; settings: Rattus norvegicus;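 note: cell death triggered by IL-1 beta plus TNF-alpha plus IFN-gamma mixture; protective hits raise ATP signal compared with cytokine alone wells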
[21] = Artemis endonuclease inhibitor potency, dose response, biochemical, fluorescence intensity (AID 720701); assay type: functional;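 note: Artemis endonuclease enzyme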
[22] = miR-122 activators in hepatoma reporter cells, dose response, cell-based, Huh7 psiCHECK-miR122, Renilla luciferase, cherry-picked (AID 651956); assay type: functional;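 note: huh7 hepatoma cells stably carrying a psiCHECK-2 miR-122 sensor plasmid; renilla luciferase signal reporting endogenous miR-122 activity after 48 h compound exposure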
[23] = HEK293T cytotoxicity, dose response, cytotoxicity control for miR-122 modulator project, cell-based, activator set, cherry-pick (AID 720690); assay type: functional;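 note: HEK293T human cells scored for general mammalian cytotoxicity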
[24] = molecular target: Paired box protein Pax-8 (Homo sapiens, UniProt Q06710); assay: inhibitors of PAX8-driven TPO luciferase reporter, dose response, RMG-I cells, cherry-pick (AID 687027); assay type: functional, cell-based;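 note: luciferase reporter driven by Pax8 target thyroperoxidase promoter measured by SteadyGlo luminescence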
Chain of Paired box protein Pax-8 (Q06710 whole entry): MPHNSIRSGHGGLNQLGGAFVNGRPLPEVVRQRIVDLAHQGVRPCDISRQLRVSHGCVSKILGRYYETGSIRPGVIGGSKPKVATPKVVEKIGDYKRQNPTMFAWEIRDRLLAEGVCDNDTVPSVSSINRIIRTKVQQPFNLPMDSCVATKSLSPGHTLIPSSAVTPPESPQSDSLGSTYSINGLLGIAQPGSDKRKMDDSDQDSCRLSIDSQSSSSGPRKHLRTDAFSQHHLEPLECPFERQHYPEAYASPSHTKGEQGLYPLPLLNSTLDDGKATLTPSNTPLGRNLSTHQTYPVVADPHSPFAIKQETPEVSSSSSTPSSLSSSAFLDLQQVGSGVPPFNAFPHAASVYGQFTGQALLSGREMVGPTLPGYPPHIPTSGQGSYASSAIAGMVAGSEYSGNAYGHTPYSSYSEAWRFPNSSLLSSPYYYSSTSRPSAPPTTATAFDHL

[25] = non-specific cell cytotoxicity, dose response, cytotoxicity control for PAX8 inhibitor project, plate reader, dry powder samples (AID 743021); assay type: functional, cell-based

Structure (SMILES): OCCN1CCN(CCCN2c3ccccc3Sc3ccc(Cl)cc32)CC1 [PERPHENAZINE]
- EC50 [1]: 10.4 µM (active)
- EC50 [2]: 10.5 µM (active)
- IC50 [3]: > 17 µM (not active)
- IC50 [4]: > 20 µM (inactive)
- IC50 [5]: 13.4 µM (active)
- IC50 [6]: 16.2 µM (active)
- IC50 [7]: 15.5 µM (inactive)
- IC50 [8]: 7.37 µM (inactive)

Structure (SMILES): Cc1ccnc(NC(=O)Nc2cccc(F)c2)c1
- EC50 [9]: > 67.5 µM (inactive)
- EC50 [10]: > 67.5 µM (inactive)

Structure (SMILES): CCCCn1cnc2cc(NCc3ccncc3)ccc21
- IC50 [11]: > 100 µM (active)
- IC50 [12]: > 100 µM (active)
- CC50 [13]: > 40 µM (active)

Structure (SMILES): Cc1cc(C)n(-c2nc(NCCCO)c3c4c(sc3n2)CCCC4)n1
- EC50 [14]: 25.9 µM (active)
- EC50 [15]: > 150 µM (not active)
- EC50 [16]: > 150 µM (not active)
- CC50 [17]: 38.6 µM (active)
- CC50 [18]: > 20 µM (active)
- IC50 [19]: 5.54 µM (active)
- AC50 [20]: 5.71 µM (active)
- IC50 [21]: 17.9 µM (active)

Structure (SMILES): Cc1noc(/C=C/c2ccco2)c1S(=O)(=O)N1CCC(C(=O)NCc2ccco2)CC1
- CC50 [13]: > 40 µM (active)

Structure (SMILES): CC(C)c1ccc(C=NNc2ccc([N+](=O)[O-])cn2)cc1
- EC50 [9]: > 67.6 µM (inactive)
- EC50 [10]: > 67.6 µM (inactive)

Structure (SMILES): C[C@@H]1CN([C@@H](C)CO)C(=O)Cc2cc(NC(=O)C3CCCCC3)ccc2O[C@H]1CN(C)Cc1ccc(-c2ccccc2)cc1
- AC50 [22]: 14.3 µM (active)
- AC50 [23]: 16.8 µM (active)

Structure (SMILES): Nc1nc(N)c2c(ccc3c2ccn3Cc2cccc([N+](=O)[O-])c2)n1
- AC50 [24]: 1.5 µM (active)
- AC50 [25]: 20.3 µM (active)
